According to US20240058349A1, “PI3K INHIBITORS FOR PROTECTION AGAINST GLUCOCORTICOID-INDUCED ATROPHY” (Northwestern University, priority 2020, published 2024):
Blank lines part the entries; values can stand above or below the compound they belong to.

Tests used:
CEM cells [1] = test: MTT cell viability / cytotoxicity assay in CEM cells; format: cell-based, human; conditions: for IC50: Homo sapiens, CCRF-CEM, MTT assay, after 24 h treatment
Experimental: (§1) Cell cultures. Acute lymphoblastic leukemia cell line CEM and mantle cell lymphoma cell line Granta were obtained from ATCC and cultured in RPMI-1640 (Thermo Fischer) with 10% FBS (HyClone), sodium piruvate (10 mM), HEPES (10 mM) and antibiotics (referred thereafter as complete medium; Thermo Fischer) (Ref 14; incorporated by reference in its entirety). Peripheral blood samples were collected from healthy volunteers. The ethical Committee of the Blokhin Cancer Research Center approved this study, written informed consents were provided. Mononuclear cell fraction was isolated by 1.077 g/ml Ficoll-Isopaque density-gradient centrifugation and cultured in the complete medium. Cells were pretreated with Rapa (0.1-5 uM), LY294002 (10-100 uM), WM (1-10 uM) and AZD8055 (0.1-2 uM) or vehicle for 6 h, then were treated for Dex (1-10 uM) or vehicle for 24-144 h as indicated.
(§2) Analysis of cell viability and apoptosis induction. Cell viability was assessed using the MTT assay as follows: cells were incubated at 37° C. for 3 h with 20 ul of MTT solution (5 mg/ml). Supernatant was discarded and 150 μL of 100% DMSO was added to each well. Optical density was measured at 495 nm using a microplate reader MultiScan MCC 340 (Labsystems). The IC50 values was calculated using Quest Graph IC50 Calculator free software. Isobolograms were constructed (Ref 15; incorporated by reference in its entirety). IC50 values of PI3K inhibitors or Dex as single agents were plotted as 1 on the x and y axes, respectively. Various concentrations of PI3K inhibitors and for Dex were combined. The IC50 values for each compound in the combination were calculated and plotted as a percentage of each single drug. The disposition of data points below, above or on the line of additivity indicates synergy, antagonism or additivity, correspondingly.
(§3) PI3K/Akt/mTOR inhibitors were developed as anti-cancer drugs. To assess whether and how PI3K/Akt/mTOR inhibitors interacted with Dex anti-lymphoma effects, experiments were conducted to evaluate the efficacy of the combined treatment in vitro using such readouts as cell viability (MTT test) and apoptosis (PARP cleavage and sub-G1-phase cell population determined by FACS).

Granta cells [2] = test: MTT cell viability / cytotoxicity assay in Granta cells; format: cell-based, human; conditions: for IC50: Homo sapiens, MTT assay, after 24 h treatment
Experimental: as §1, §2, §3

Granta xenografts = test: Granta lymphoma xenograft tumor growth study; format: in vivo, nu/nu mice; conditions: 27th day of treatment, vs control; i.p. every 48 h; LY294002 20 mg/kg, Rapa 5 mg/kg, Dex 1 mg/kg
Experimental: Xenograft tumor growth study. 10 million Granta cells in 200 ul BD Matrigel Matrix were subcutaneously injected into the right flank of 7 weeks old female nu/nu mice (Taconic). Animals were randomized and treated every 48 h with LY294002 (20 mg/kg), Rapamycin (5 mg/kg) of vehicle (30% PEG3350, 4% DMSO, 5% Tween 20 in PBS) followed by Dex (1 mg/kg) of vehicle (5% DMSO in PBS) 6 h later. Body weight was recorded twice a week. Tumor size was measured twice a week by digital calipers, drug interaction mode was calculated based on combination index method (Refs. 16,17; incorporated by reference in their entireties). Combination index (CI) of Dex+Rapa/LY294002 was calculated as ratio (observed fraction value of combination group)/(expected fraction value of combination group). The observed fractions were calculated as ratio (mean value of experiment)/(mean value of control), and the expected fractions values of combination effect between combined groups and single drug groups were calculated as expected fraction=(mean observed fraction of Dex)×(mean observed fraction of Rapa/LY294002). CI<1, CI=1 and CI>1 indicates a synergy, additive effect and antagonism, respectively.
Histological analysis and immunostaining. […] Ki67 and Caspase 3 were detected by immunostaining with antibodies to Ki-67 and Caspase-3 (Cell Signaling, San Jose, CA).
Morphometric analysis. Quantification of the epidermal width, dermal adipose thickness, bone thickness and cellularity of xenograft tissue was performed in sections stained with hematoxylin and eosin. At least 5 individual fields per slide of each individual sample/treatment (at least 50 images/treatment group) were analyzed using Axioplan2 microscope software (Carl Zeiss). […]
Animals were randomized to different treatment groups after tumor volume reached 50 mm3. […] All treatment regiments were only minimally toxic according to the steady increase in body weight monitored twice weekly (FIG. 11). Tumor volume was measured also twice a week (FIG. 12).

Granta cells [3] = test: Apoptosis induction (PI staining sub-G1, PARP cleavage) in Granta cells; format: cell-based, human
Experimental: (§4) Apoptosis induction was evaluated using Western blot analysis of PARP cleavage and propidium iodine (PI) staining (Ref. 14; incorporated by reference in its entirety).
(§5) Cooperative anti-lymphoma effects of Dex and PI3K/Akt/mTOR inhibitors in vitro. PI3K/Akt/mTOR inhibitors were developed as anti-cancer drugs. To assess whether and how PI3K/Akt/mTOR inhibitors interacted with Dex anti-lymphoma effects, experiments were conducted to evaluate the efficacy of the combined treatment in vitro using such readouts as cell viability (MTT test) and apoptosis (PARP cleavage and sub-G1-phase cell population determined by FACS). The cytotoxic effect of Dex and PI3K inhibitors in wide concentration range (LY294002 1-500 uM, WM 0.1-25 uM, AZD8055 0.05-5 uM) was assessed (FIG. 8) and determined IC50 values after 24 h treatment (Table 8).
(§6) The effect of Dex combined with LY294002, AZD8055, WM or reference inhibitor Rapa was examined on apoptosis.

GR [4] = test: Western blot of GR nuclear translocation; format: cell-based, human; conditions: CEM and Granta cells; LY294002 50 uM, AZD8055 1 uM, Dex 1 uM 24 h
Experimental: (§7) Western blot analysis. Western blot analysis was performed (Ref 10; incorporated by reference in its entirety). The following antibodies were used: GR (H-300) (Santa Cruz Biotechnology, Dallas, TX), phospho-GR (Ser211), phospho-4E-BP1 (Thr37/46), phospho-Akt (Ser473), Akt, 4E-BP1, cleaved and full-length PARP, GAPDH, HDAC1 (Cell Signaling, San Jose, CA), REDD1 (Proteintech Group, Rosemont, IL).
To identify the molecular mechanisms underlying GR functional changes induced by PI3K/Akt/mTOR inhibitors, the effect of these compounds on major steps in GR activation was assessed: GR phosphorylation at Ser211 and nuclear translocation that are critical for GR TA (Refs. 27,28; incorporated by reference in their entireties).

GR [5] = test: GRE.Luciferase reporter assay (GR transactivation) in CEM and Granta cells; format: cell-based, human
Experimental: Luciferase assay. GRE.Luc, NF-κB.Luc and control mCMV.Luc reporter cells were generated (Ref. 13; incorporated by reference in its entirety) using viral stocks obtained from Northwestern University SDRC DNA/RNA delivery Core. Luciferase activity was measured (Ref. 10; incorporated by reference in its entirety).
REDD1 is a GR target gene (Refs. 10,21; incorporated by reference in their entireties). To assess whether REDD1 inhibitors could modify GR function, LY294002, WM and AZD8055 effect on GR TA and TR was evaluated using CEM and Granta cells transduced with GRE.Luc and NF-kB.Luc reporters. […] Luciferase activity in both cell lines (FIG. 2A, C). […] Attenuation of GR TA was further confirmed by Q-PCR analysis of known GR-target genes including GR chaperone FKBP51 (Refs. 12,14; incorporated by reference in their entireties), mediator of Gcs anti-inflammatory effects GILZ (22,23), transcriptional activator KLF9 (24) and inhibitor of cytokine production MKP-1 (25) (FIG. 2B, D and FIG. 7A, B).

REDD1 = REDD1 mRNA/protein expression (Q-PCR, Western blot) in CEM and Granta cells; format: cell-based, human
Experimental: as §1, §7
RNA extraction and Q-PCR. […]

CEM cells [6] = test: Apoptosis induction (PI staining sub-G1, PARP cleavage) in CEM cells; format: cell-based, human
Experimental: as §4, §5, §6

[7] = tested on: Dex-induced osteoporosis and skin atrophy; test: Glucocorticoid-induced osteoporosis (GIOP) and skin atrophy model; format: in vivo, BALB/c female mice
Experimental: Glucocorticoid-induced osteoporosis (GIOP). GIOP was induced as described (18) by i.p. injection of Dex (10 mg/kg) in 12 weeks old BALB/c female mice (“Stolbovaya”, Moscow region, Russia) every 48 h for 5 weeks. 6 h prior to Dex, animals were treated i.p. with LY294002 (20 mg/kg), Rapamycin (5 mg/kg) of vehicle (30% PEG3350, 4% DMSO, 5% Tween-20 in PBS). Body weight was recorded twice a week.
Histological analysis and immunostaining. Xenograft and skin samples were fixed in formaldehyde, embedded in paraffin, sections were stained with hematoxylin and eosin. The bone samples after formaldehyde fixation were decalcinated in decalcination buffer (0.5 M EDTA, 0.7 mM NaOH, pH=7.0) for 14 days, then washed with PBS twice and further processed according to standard histology protocol. Ki67 and Caspase 3 were detected by immunostaining with antibodies to Ki-67 and Caspase-3 (Cell Signaling, San Jose, CA).
Morphometric analysis. Quantification of the epidermal width, dermal adipose thickness, bone thickness and cellularity of xenograft tissue was performed in sections stained with hematoxylin and eosin. At least 5 individual fields per slide of each individual sample/treatment (at least 50 images/treatment group) were analyzed using Axioplan2 microscope software (Carl Zeiss). The epidermal, dermal adipose, or bone thickness and cell density in treated animals is presented as % to control animals.
To test whether REDD1 inhibitors protect against systemic atrophic effects of Gcs, a model of Gcs-induced osteoporosis in Balb/c female mice was used (18) to assess atrophy in both bone and skin induced by high-dose i.p. Dex injections (10 mg/kg) every 48 h for 5 weeks. LY294002 (20 mg/kg), Rapa (5 mg/kg) or vehicle were injected 6 h prior animal treatment with Dex.

[8] = combination with Dex, IC50 after 24 h treatment
[9] = systemic Dex 10 mg/kg every 48 h, 5 weeks, LY294002 20 mg/kg
[10] = used alone for 6 days, LY294002 50 uM, AZD8055 1 uM, WM 10 uM, Dex 1 uM

Compound: COC[C@H]1OC(=O)c2coc3c2[C@@]1(C)C1=C(C3=O)[C@@H]2CCC(=O)[C@@]2(C)C[C@H]1OC(C)=O [Wortmannin]
IC50 (CEM cells [1]): 9.14 µM
IC50 (Granta cells [2]): 11.9 µM

Compound: CO[C@H]1C[C@@H]2CC[C@@H](C)[C@@](O)(O2)C(=O)C(=O)N2CCCC[C@H]2C(=O)O[C@H]([C@H](C)C[C@@H]2CC[C@@H](O)[C@H](OC)C2)CC(=O)[C@H](C)/C=C(\C)[C@@H](O)[C@@H](OC)C(=O)[C@H](C)C[C@H](C)/C=C/C=C/C=C/1C [Rapamycin]
decrease in tumor volume (Granta xenografts): ~75%

Compound: COc1ccc(-c2ccc3c(N4CCOC[C@@H]4C)nc(N4CCOC[C@@H]4C)nc3n2)cc1CO [AZD8055]
apoptosis (sub-G1-phase cell population), used alone, Granta cells (Granta cells [3]): stimulated apoptosis
GR nuclear import (GR [4]): significantly prevented GR nuclear import
Dex-induced GRE.Luciferase activity (GR [5]; 6 h pre-treatment, Dex 1 uM 24 h): inhibited Dex-induced GRE. Luciferase activity
basal GR activity (GRE.Luciferase) (GR [5]; applied individually): negatively affected basal GR activity
effect on REDD1 induction by Dex (REDD1; CEM and Granta cells, 6 h pre-treatment (LY294002 50 uM, WM 10 uM, AZD8055 1 uM), then Dex 24 h): prevented REDD1 induction
basal REDD1 expression (REDD1; inhibitor without Dex, mRNA in CEM cells, protein more pronounced in Granta cells): blocked basal and glucocorticoid-induced REDD1 expression
IC50 (CEM cells [1]): 1.36 µM
type of interaction with Dex (isobologram analysis), CEM cells (CEM cells [1]; [8]): mostly additive
IC50 (Granta cells [2]): 2.02 µM
type of interaction with Dex (isobologram analysis), Granta cells (Granta cells [2]; [8]): mostly additive
apoptosis (sub-G1-phase cell population), used alone, CEM cells (CEM cells [6]): stimulated apoptosis

femoral bone thickness ([7]; Dex 10 mg/kg vs control): tendency in decrease
Compound: C[C@@H]1C[C@H]2[C@@H]3CCC4=CC(=O)C=C[C@]4(C)[C@@]3(F)[C@@H](O)C[C@]2(C)[C@@]1(O)C(=O)CO [Dexamethasone]
reduction in dermal adipose thickness [7, 9]: ~70%
reduction in epidermal thickness [7, 9]: ~50%
decrease of CEM survival (CEM cells [1]; [10]): 50-55%
decrease of Granta survival (Granta cells [2]; [10]): 50-55%
decrease in tumor volume (Granta xenografts): ~40%

Compound: O=c1cc(N2CCOCC2)oc2c(-c3ccccc3)cccc12 [LY294002]
IC50 (CEM cells [1]): 62 µM
IC50 (Granta cells [2]): 77.6 µM
decrease in tumor volume (Granta xenografts): ~70%
